The test system of this assay is Sprague-Dawley rats. In words: Rat EEG assay (wake, REM, non-REM states). Type of assay: in vivo. Conditions: for number of wake and non-REM sleep bouts / wake bout duration: hourly bins, EEG; for wake promotion: male Sprague-Dawley rats, dosed in middle of inactive period, first 6 hours post-dosing; for time spent in REM sleep / time spent in non-REM sleep / time spent in wake: relative to vehicle treated animals, 6 hour recording; for normalized power in the 40-60 Hz range (EEG spectral analysis): wake EEG spectra, shift to higher frequencies. How it is done:
The rat EEG assay was designed to measure electrical signals from the brain as a proxy for in vivo biological activity at the H3 receptor.
Specifically, animals were housed in a temperature-controlled recording room under a 12 hour/12 hour light/dark cycle, with food and water available ad libitum. Eight male Sprague-Dawley rats were implanted with chronic recording devices for continuous recordings of electroencephalograph (EEG) via telemetry (Data Sciences Inc). A repeated measures design was employed in which each rat received eight separate dosings of the compound being tested with a minimum of 3 days between doses. […] EEG data were scored visually in 10 second epochs for wake, REM, and non-REM states. Scored data were analyzed and expressed as time spent in each state per hour. Cumulative time spent in wake, non-REM, and REM states were calculated for the 6 hour recording period. To determine whether any of the pharmacological treatments affected the consolidation of behavioral states, the duration and number of bouts for each state were calculated in hourly bins. A “bout” consisted of a minimum of two consecutive 10-second epochs of a given state and ended with any single state change epoch. The EEG spectra during wake and non-REM sleep were analyzed offline with a fast Fourier transform algorithm (NeuroScore software, Data Sciences Inc) on all epochs without a visually detectable artifact. Wake EEG spectra were analyzed in 1 Hz bins. Data were analyzed using two-way repeated-measures ANOVA.
For both compounds, there was an increase in the time spent in wake, a decrease in the time spent in non-REM sleep, and no change in the time spent in REM sleep relative to vehicle treated animals.

With `c1cn2cc(-c3ccc4c(c3)nc3n4CCN4CCCC[C@@H]4C3)ccc2n1` (single isomer, unassigned) [Compound 48], the “number of wake and non-REM sleep bouts” value is reported as “decrease”; the wake bout duration result is given as “increase”; the wake promotion result was “wake promoting”; the “time spent in REM sleep” value was “no change”. Moreover, the “time spent in non-REM sleep” value is “decrease”, the “time spent in wake” value was “increase” and the “normalized power in the 40-60 Hz range (EEG spectral analysis)” value was “increase”.
As to `c1cn2cc(-c3ccc4c(c3)nc3n4CCCN(C4CCC4)CC3)ccc2n1` [Compound 59, 3-cyclobutyl-10-(imidazo[1,2-a]pyridin-6-yl)-1,2,3,4,5,6-hexahydrobenzo[4,5]imidazo[1,2-a][1,5]diazocine], the “number of wake and non-REM sleep bouts” value is reported as “decrease”; the wake bout duration entry is “increase”; the wake promotion entry was “wake promoting”; the “time spent in REM sleep” value is recorded as “no change”. The “time spent in non-REM sleep” value is recorded as “decrease”, the “time spent in wake” value was “increase” and the “normalized power in the 40-60 Hz range (EEG spectral analysis)” value was “increase”.

Values taken from patent publication US20120172350A1, “HISTAMINE H3 INVERSE AGONISTS AND ANTAGONISTS AND METHODS OF USE THEREOF” (SUNOVION PHARMACEUTICALS INC., priority 2009, published 2012).
